Test results reported in patent US11445912B2, “Robust myocardial blood oxygen level dependent magnetic resonance imaging with long acting coronary vasodilators” (Cedars-Sinai Medical Center, priority 2015, dated 2022).
Where two headings read alike, the source gives them in different places.

Assays:
[1] = cited from earlier work; for terminal half-life: extended vasodilatory state
Canines [2] = assay: 13N-ammonia PET myocardial blood flow at rest and post regadenoson, PET/MR (Example 1); assay type: in vivo
Experimental: (§1) Canines (n=7) were studied in a PET/MR system. MR acquisitions were used to generate short-axis 2D T2 maps; and the PET acquisitions following ^[…]-ammonia infusion were used to quantify myocardial blood flow (MBF). Initially, 2D T2 maps and PET signals were acquired at rest. Subsequently, regadenoson (2.5 μg/kg) was administrated. T2 maps were acquired at 2- and 10-mins p.r.a and PET signals were acquired at 10-mins p.r.a. Standard deviation (a) of myocardial T2 values was measured at rest, 2- and 10-mins p.r.a from T2 maps and were used to determine Myocardial BOLD Variability (MBV, defined as σT2(stress)/σT2(rest)) at 2- and 10-min p.r.a. Similarly, using the mean T2 values, Myocardial BOLD Response (MBR, defined as T2(stress)/T2(rest)) was computed at 10-mins p.r.a. PET images were analyzed with qPET software to determine MBF and MPR at rest and 10-mins p.r.a and were regressed against MBR.

Canines [3] = assay: Myocardial BOLD CMR, 2D T2 maps post regadenoson (Example 1); assay type: in vivo
Experimental: as §1

healthy human volunteers = assay: Repeated BOLD CMR, coronary dynamic parameters from mono-exponential model (Example 2); assay type: in vivo; conditions: global myocardium
Experimental: (§2) BOLD images were acquired at different time points before and after regadenoson administration to sample the rest and stress images, respectively. After bolus regadenoson injection, multiple stress images were acquired to sample the coronary dynamics curve for 30 minutes. All stress images were registered to the rest images with a non-rigid motion correction algorithm (Avants B B, Tustison N J, Song G, Cook P A, Klein A, Gee J C. A reproducible evaluation of ANTs similarity metric performance in brain image registration. Neuroimage 2011; 54:2033-44) to correct for motion-induced miss match between acquisitions. Motion corrected images were used to extract the CDPs throughout the stress period using a mono-exponential model (Felmlee M A, Morris M E, Mager D E. Mechanism-based pharmacodynamic modeling. Methods in molecular biology 2012; 929:583-600) (T2(t)=T2o+ΔT2max exp(−t/τ)). A flow chart of the experimental setup is depicted in FIG. 4.
(§3) In healthy volunteers and intact dogs, global CDPs were extracted from the myocardium. Maximum BOLD response was derived with CDPs (MBRCDP=ΔT2max/T2o×100%) and compared with conventional myocardial BOLD response (MBRcon), which was derived as the T2 elevation from rest to 2 minutes after regadenoson administration (MBRconv=[(StressT2^2min/Rest T2)−1)×100%]. In the animals with coronary impairment, CDPs were measured in segmental and pixel-wise manner. Pixel-wised CDPs between remote and affected territories were segmented using SVMs to investigate the capability of separating diseased myocardium from the remote regions. In addition, CDPs were derived from subsets of BOLD images with different starting time points to probe the optimized setup of detecting affected territories. Details of each step are described in the following sections.
(§4) Experimental Subjects and animal preparation: We studied healthy human volunteers (n=6), intact dogs (n=7) and dogs with chronic infarctions (n=1). During imaging studies in animals, all animals were mechanically ventilated and anesthetized with propofol. In the dog with chronic infarction, the animal underwent an open chest ischemia reperfusion protocol (3 hours of ischemia followed by reperfusion), followed by 8-week recovery prior to imaging.
(§5) Image acquisition: Human studies were performed on a 3.0 T clinical MM system (MAGNETOM Verio®, Siemens Healthcare, Erlangen, Germany) and the animals were studied on a 3T whole body PET MR system (Biograph mMR, Siemens Healthcare, Erlangen, Germany). In all subjects, BOLD images were acquired with a commercially available 2D T2 mapping sequence {Giri, 2009 #820}. In all studies, after localization and shimming, rest BOLD images were acquired under baseline followed by a bolus regadenoson injection. Post regadenoson administration, BOLD CMR images were acquired between 2 to 30 minutes after regadenoson injection with an interval of 1-5 minutes depending on the physiological and imaging condition. In the animal with chronic infarction, simultaneous ^13N ammonia PET images were acquired at 2 minutes post regadenoson administration to validate the hyperemic response from regadenoson. In addition, LGE images were acquired to identify the infarcted territories after all BOLD acquisitions were completed. Block representations of imaging protocols are illustrated in FIG. 5. Imaging parameters are listed as the following: T2 mapping: TR/TE=2.9 ms/1.1 ms, iPAT=2, partial Fourier=3/4, FA=35°, BW=1184 Hz/pixel, 86 lines per heartbeat (simulated rate 60/s), trigger pulse=4, FOV=288×360 mm^2, matrix size=154×192, and voxel size=2.5×1.7×6.0 mm^3, T2 preparation (as TEs)=0, 24, 55 ms.
(§6) Image Processing: The series of BOLD images acquired post regadenoson administration were aligned using the advanced normalization tools (ANTS software). Rest images were used as the reference for registration. […]

intact dogs [4] = assay: as above; assay type: in vivo; conditions: global myocardium
Experimental: as §2, §3, §4, §5, §6

[5] = test system: dog with chronic infarction; assay: Repeated BOLD CMR, coronary dynamic parameters in remote and affected myocardium (Example 2); assay type: in vivo
Experimental: as §2, §3, §4
Image acquisition: Human studies were performed on a 3.0 T clinical MM system (MAGNETOM Verio®, Siemens Healthcare, Erlangen, Germany) and the animals were studied on a 3T whole body PET MR system (Biograph mMR, Siemens Healthcare, Erlangen, Germany). In all subjects, BOLD images were acquired with a commercially available 2D T2 mapping sequence {Giri, 2009 #820}. In all studies, after localization and shimming, rest BOLD images were acquired under baseline followed by a bolus regadenoson injection. […]

[6] = test system: dog with chronic infarction; assay: 13N ammonia PET myocardial perfusion reserve in infarcted animal (Example 2); assay type: in vivo; conditions: PET at 2 minutes post regadenoson
Experimental: as §5, with “Imaging parameters are listed as the following: T2 mapping: TR/TE=2.9 ms/1.1 ms, iPAT=2, partial Fourier=3/4, FA=35°, BW=1184 Hz/pixel, 86 lines per heartbeat (simulated rate 60/s), trigger pulse=4, FOV=288×360 mm^2, matrix size=154×192, and voxel size=2.5×1.7×6.0 mm^3, T2 preparation (as TEs)=0, 24, 55 ms.” left out
In addition, simultaneously acquired quantitative PET images were used to derive myocardial perfusion reserve (MPR) with a clinical validated software (QPET, Cedars-Sinai Medical Center, Los Angeles) and to validate the reduced MPR in the infarcted myocardium.

intact dogs [7] = assay: Repeated BOLD CMR with coronary relaxation model (Example 3); assay type: in vivo
Experimental: (§7) Intact (n=7) and infarcted (n=2) dogs were studied in a hybrid PET/MR system. 2D BOLD (T2 maps), LGE and ^13N—NH3 PET images were acquired at rest and at post-regadenoson administration (p.r.a.). T2 maps post-regadenoson administration (p.r.a.) were repeatedly acquired over 30 mins and were registered to T2 maps at rest. These time-dependent T2 maps were then used to model the coronary relaxation as T2(t)=T2o+ΔT2max exp(−t/τ), where T2o, ΔT2max and τ are fit parameters with T2o=T2 at rest; ΔT2max=maximal T2 change from rest; and τ=time constant of coronary relaxation. Maximum BOLD response from CRM was estimated (MBRCRM=ΔT2max/T2o×100%) and compared to conventional myocardial BOLD response [MBRcon=(T2^2min−Rest T2)/Rest T2×100%, where T2^2min=myocardial T2 at 2 min p.r.a and Rest T2=T2 prior to regadenoson injection] using a regression model. In infarcted dogs, affected zones were identified using Late Gadolinium Enhancement (LGE). BOLD contrast-to-noise ratio (CNR) between remote and affected zones (CNR=(μMBRRemote−μMBRAffected)/σMBRRemote, where μ and σ are the mean and std dev) were estimated for MBRCRM and MBRcon and compared. MBRs were validated with perfusion reserve from PET myocardial perfusion reserve (MPR).

intact dogs [8] = assay: 13N-NH3 PET myocardial perfusion reserve (Example 3); assay type: in vivo; conditions: p.r.a
Experimental: as §7

infarcted dogs [9] = assay: Repeated BOLD CMR with coronary relaxation model, remote vs affected zones (Example 3); assay type: in vivo
Experimental: as §7

infarcted dogs [10] = assay: 13N-NH3 PET myocardial perfusion reserve, remote vs affected zones (Example 3); assay type: in vivo
Experimental: as §7

[11] = 10-min post regadenoson administration, 2.5 μg/kg
[12] = affected (infarcted) myocardium

For `CCNC(=O)[C@H]1O[C@@H](n2cnc3c(N)nc(C#CC[C@H]4CC[C@H](C(=O)OC)CC4)nc32)[C@H](O)[C@@H]1O` [apadenoson], the terminal half-life [1] is listed as 5 min.
In the case of `Nc1nc(N/N=C/C2CCCCC2)nc2c1ncn2[C@@H]1O[C@H](CO)[C@@H](O)[C@H]1O` [binodenoson], the terminal half-life [1] is listed as 10 to 120 min.
In the case of `OCCN(CCO)c1nc(N2CCCCC2)c2nc(N(CCO)CCO)nc(N3CCCCC3)c2n1` [dipyridamole], the terminal half-life ([1]; units printed within the range) is listed as 40 to 600 min.
For `CNC(=O)c1cnn(-c2nc(N)c3ncn([C@@H]4O[C@H](CO)[C@@H](O)[C@H]4O)c3n2)c1` [regadenoson], the “myocardial blood flow relative to rest” value (Canines [2]; 10-15 minutes post regadenoson infusion) was “above 2 fold”, the “myocardial blood flow (MBF)” value (Canines [2]; [11]) was 1.8 ± 0.9 mL/min/g and the “Myocardial T2” value (Canines [3]; [11]) was 40.4 ± 1.7 ms. The “T2 elevation relative to rest” value (Canines [3]; 10 min post regadenoson administration) was 9%, the “MBRCDP (ΔT2max/T2o×100%)” value (healthy human volunteers) was 26.5% and the “MBRcon (T2 elevation from rest to 2 minutes after regadenoson)” value (healthy human volunteers) was 12.0%. The “ΔT2max (maximum BOLD stimulation amplitude)” value (healthy human volunteers) was 14.7 ms, the “τ (coronary relaxation time constant)” value (healthy human volunteers) was 35.6 min and the “MBRCDP (ΔT2max/T2o×100%)” value (intact dogs [4]) was 25.8%. The “MBRcon (T2 elevation from rest to 2 minutes after regadenoson)” value (intact dogs [4]) was 10.1%, the “ΔT2max (maximum BOLD stimulation amplitude)” value (intact dogs [4]) was 8.6 ms and the “τ (coronary relaxation time constant)” value (intact dogs [4]) was 38.5 min. For the same compound, the “coronary relaxation time constant (τ)” value ([5]; Remote myocardium) was 29.6 min, the “maximum T2 response (ΔT2max)” value ([5]; Remote myocardium) was 5.4 ms and the “coronary relaxation time constant (τ)” value [5, 12] was 54.09 min. For the same compound, the “maximum T2 response (ΔT2max)” value [5, 12] was 1.6 ms, the “myocardial perfusion reserve (MPR)” value ([6]; infarcted territories) was 1.9 and the “myocardial perfusion reserve (MPR)” value ([6]; remote myocardium) was 3.7. For the same compound, the “MBRCRM (ΔT2max/T2o×100%)” value (intact dogs [7]) was 27±16%, the “MBRcon ((T2 2min−Rest T2)/Rest T2×100%)” value (intact dogs [7]; 2 min p.r.a) was 12±6% and the “ΔT2max (maximal T2 change from rest)” value (intact dogs [7]; CRM fit) was 14.7 ± 5.8 ms. The “τ (time constant of coronary relaxation)” value (intact dogs [7]; CRM fit) was 35.5 ± 26.8 min, the “PET myocardial perfusion reserve (MPR)” value (intact dogs [8]) was 3.0±0.6 and the MBRCRM (infarcted dogs [9]; Affected region) was 1±10%. It also gave an MBRcon (infarcted dogs [9]; Affected region) of 5±7%, an MBRCRM (infarcted dogs [9]; Remote region) of 27±6% and an MBRcon (infarcted dogs [9]; Remote region) of 15±5%. The “MPRaffected (PET)” value (infarcted dogs [10]; Affected region) was 1.9±0.7, the “MPRremote (PET)” value (infarcted dogs [10]; Remote region) was 3.7±0.6 and the terminal half-life [1] was 33 to 108 min. For the same compound, the “second phase of pharmacological half-life” value ([1]; in vivo) was “approximately 30 minutes”.
